Entries after “also recorded” stand apart in the source; their conditions may differ. Where a SMILES comes first, the peptide text is derived from it. Where no end group is shown, it is not given here. The star is where a group is joined. Biotin = O=C1N[C@H]2[C@H](CS[C@H]2CCCCC(=O)*)N1
Assays:
plasminogen = biological target: T1, plasminogen (Homo sapiens, UniProt P00747); assay: Microscale thermophoresis, binding to plasminogen
T1 construct: purchased Merck Millipore (Code 528175) or Sigma (Glu-plasminogen, Code P7999); host or cells: human plasma
Experimental: (§1) Binding affinities to fluorescent labelled host proteins was measured by microscale thermophoresis as described in[72]. Microscale thermophoresis was set to 30 s and samples were scanned with 40%, 60% and 80% MST Power. Dissociation constants were determined from generated dissociation curves with set hot/cold or thermophoresis settings. As a control, a scrambled version of the C-terminal P1 peptide ([…]) was synthesised by Chempeptide Limited (China) without any tags and binding affinities was measured.

Glu-plasminogen = assay: Microtitre plate binding assay (ELISA), plasminogen; set-up: species or system human; settings: 15 µg/ml of C-terminal P1 fragments bound to wells, absorbance 450 nm (620 nm reference), eight replicates, P1-15 with N-terminal biotin tag
Experimental: (§2) Human proteins used for ELISA include: plasma fibrinogen (Code: F3879), plasma fibronectin (Code: 11051407001), Glu-plasminogen (Code: P7999), vitronectin (Code: SRP3186), laminin (Code: L6274), and lactoferrin (Code: L1294) which were all supplied by Sigma.
(§3) Binding affinity measured by ELISA was performed as described previously. Recombinant protein RP15 was produced as described[55] and both C-terminal peptides were synthesised by Chempeptide Limited (China). P1-30 (^1597[…]^1627) without any tags, but P1-15 (^1613PGAPKPPVQPPKKPA^1627) was sequenced with an N-terminal biotin tag.
(§4) 15 µg/ml of C-terminal P1 fragments were bound to wells and incubated with different host proteins. Wells were then incubated with different antiserum raised against the different host proteins at the following dilutions (all from Sigma): anti-fibrinogen 1:3000, anti-fibronectin 1:1000, anti-plasminogen: 1:2500, anti-vitronectin 1:5000, anti-laminin 1:750, and anti-lactoferrin 1:5,000. These incubations were followed by incubations with anti-rabbit IgG (Dako) or anti-goat IgG (both 1:2,000). Detection was measured by adding Tetramethylbenzidine (Sigma) followed by 1 M HCl, and absorbance was measured at 450 nm (620 nm as reference).

plasma fibronectin = assay: Microtitre plate binding assay (ELISA), fibronectin; set-up: species or system human; settings: 15 µg/ml of C-terminal P1 fragments bound to wells, absorbance 450 nm (620 nm reference), eight replicates, P1-15 with N-terminal biotin tag
Experimental: as §2, §3, §4

plasma fibrinogen = assay: Microtitre plate binding assay (ELISA), fibrinogen; set-up: species or system human; settings: 15 µg/ml of C-terminal P1 fragments bound to wells, absorbance 450 nm (620 nm reference), eight replicates, P1-15 with N-terminal biotin tag
Experimental: as §2, §3, §4

vitronectin = assay: Microtitre plate binding assay (ELISA), vitronectin; set-up: species or system human; settings: 15 µg/ml of C-terminal P1 fragments bound to wells, absorbance 450 nm (620 nm reference), eight replicates, P1-15 with N-terminal biotin tag
Experimental: as §2, §3, §4

laminin = assay: Microtitre plate binding assay (ELISA), laminin; set-up: species or system human; settings: 15 µg/ml of C-terminal P1 fragments bound to wells, absorbance 450 nm (620 nm reference), eight replicates, P1-15 with N-terminal biotin tag
Experimental: as §2, §3, §4

lactoferrin = assay: Microtitre plate binding assay (ELISA), lactoferrin; set-up: species or system human; settings: 15 µg/ml of C-terminal P1 fragments bound to wells, absorbance 450 nm (620 nm reference), eight replicates, P1-15 with N-terminal biotin tag
Experimental: as §2, §3, §4

cytokeratin 7 = assay: Affinity chromatography of A549 lysate on P1-15, cytokeratin 7; type: binding, human; settings: biotinylated P1-15 on avidin agarose vs uncoupled avidin agarose control, native A549 cell lysate
Experimental: (§5) The C-terminal sequence of P1 (P1-15) was synthesised with an N-terminal biotin tag by Chempeptide Limited (China). Affinity chromatography was performed similar to the section above. In brief, 1 mg of the peptide was added to Avidin Agarose beads for 16 h at 4 °C. The beads were washed four times (5 ml per wash) with PBS before being incubated with native A549 cell lysates (harvested in 1% w/v C7BzO in PBS) for 16 h at 4 °C. Non-binding proteins were washed from the column with four washes (5 ml per wash) of PBS and protein complexes with an affinity to the peptide were eluted from the column with 7 M urea, 2 M thiourea, 40 mM Tris-HCl, and 1% (w/v) C7BzO (4 times of 2 ml). Eluents were concentrated with a Macrosep® 3 kDa cutoff centrifugal device (Pall), precipitated with acetone, and separated by 1D-SDS PAGE. The whole lane was divided into sections, in-gel digested with trypsin, and analysed by LC-MS/MS as described above.

cytokeratin 8 = assay: Affinity chromatography of A549 lysate on P1-15, cytokeratin 8; type: binding, human; settings: biotinylated P1-15 on avidin agarose vs uncoupled avidin agarose control, native A549 cell lysate
Experimental: as §5

cytokeratin 18 = assay: Affinity chromatography of A549 lysate on P1-15, cytokeratin 18; type: binding, human; settings: biotinylated P1-15 on avidin agarose vs uncoupled avidin agarose control, native A549 cell lysate
Experimental: as §5

vimentin = assay: Affinity chromatography of A549 lysate on P1-15, vimentin; type: binding, human; settings: biotinylated P1-15 on avidin agarose vs uncoupled avidin agarose control, native A549 cell lysate
Experimental: as §5

[1] = system: glyceraldehyde-3-phosphate dehydrogenase; assay: Affinity chromatography of A549 lysate on P1-15, glyceraldehyde-3-phosphate dehydrogenase; type: binding, human; settings: slice 3; biotinylated P1-15 on avidin agarose vs uncoupled control; native A549 cell lysate
Experimental: as §5

panel of host proteins = assay: Microtitre binding assays, panel of host proteins; set-up: species or system human; settings: 15 µg/ml of C-terminal P1 fragments bound to wells
Experimental: as §2, §3, §4

fetuin = biological target: T2, fetuin (Bos taurus, UniProt P12763); assay: Microscale thermophoresis, binding to fetuin
T2 construct: purchased Sigma F3004
T2 sequence (P12763 19-359): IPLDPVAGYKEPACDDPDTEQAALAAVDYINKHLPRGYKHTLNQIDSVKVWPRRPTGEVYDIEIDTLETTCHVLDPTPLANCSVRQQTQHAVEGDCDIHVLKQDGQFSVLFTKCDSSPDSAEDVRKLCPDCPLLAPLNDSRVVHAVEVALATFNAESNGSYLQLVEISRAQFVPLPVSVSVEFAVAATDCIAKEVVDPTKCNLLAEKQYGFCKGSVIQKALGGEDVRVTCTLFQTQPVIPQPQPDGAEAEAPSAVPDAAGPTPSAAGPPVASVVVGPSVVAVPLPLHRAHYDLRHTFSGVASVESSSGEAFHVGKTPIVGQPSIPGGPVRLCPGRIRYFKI
Experimental: as §1

A549 human lung cells = assay: Binding to immobilised A549 human lung cells (microtitre plate); type: cell-based; settings: 10 µg/ml; detection with antiserum against RP15 (1:100), absorbance 450 nm; eight replicates
Experimental: Freshly grown A549 cells were immobilised in 96-well microtitre plates as described in[17]. Immobilised A549 cells were incubated with 10 µg/ml of either RP15, P1-30, or P1-15 and binding affinity was measured with antiserum raised against RP15 (1:100) as described above. Absorbance detection at 450 nm is the same as described above.

Human vitronectin = biological target: T3, Human vitronectin (human, UniProt P04004 20-478); assay: ELISA; 15 µg/ml of C-terminal P1 fragment bound to wells, incubated with host protein at several concentrations; detected with antiserum against the host protein, absorbance at 450 nm; settings: both partners purified
T3 construct: vitronectin, human, Sigma SRP3186; source: bought: Sigma (Code SRP3186)

Human lactoferrin = biological target: T4, Human lactoferrin (human, UniProt P02788 20-710); assay: as above; settings: both partners purified
T4 construct: lactoferrin, human, Sigma L1294; source: bought: Sigma (Code L1294)

[2] = biological target: T5, Fetuin, fluorescent labelled (microscale thermophoresis) (bovine, UniProt P12763 19-359, fluorescent label); assay: MST; fluorescent labelled host protein, peptide titrated; thermophoresis 30 s, 40%, 60% and 80% MST power; settings: both partners purified
T5 construct: fetuin
T5 sequence (looked up): T2 sequence (P12763 19-359)

[3] = listed as 1613PGAPKPPVQPPKKPA^1627

T3 sequence (P04004 20-478): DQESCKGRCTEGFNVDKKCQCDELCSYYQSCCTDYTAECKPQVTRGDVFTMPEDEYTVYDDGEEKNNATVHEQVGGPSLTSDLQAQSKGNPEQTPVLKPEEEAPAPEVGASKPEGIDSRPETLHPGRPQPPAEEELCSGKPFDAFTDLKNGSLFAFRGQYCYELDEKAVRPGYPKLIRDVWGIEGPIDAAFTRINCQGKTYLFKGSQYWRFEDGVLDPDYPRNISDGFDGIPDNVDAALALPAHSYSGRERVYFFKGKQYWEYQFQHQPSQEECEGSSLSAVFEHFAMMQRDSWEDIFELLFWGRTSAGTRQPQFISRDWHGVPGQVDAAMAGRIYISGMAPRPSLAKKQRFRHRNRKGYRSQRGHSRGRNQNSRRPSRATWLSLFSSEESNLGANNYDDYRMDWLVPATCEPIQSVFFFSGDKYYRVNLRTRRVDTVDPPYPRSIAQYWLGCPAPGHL
T4 sequence (P02788 20-710): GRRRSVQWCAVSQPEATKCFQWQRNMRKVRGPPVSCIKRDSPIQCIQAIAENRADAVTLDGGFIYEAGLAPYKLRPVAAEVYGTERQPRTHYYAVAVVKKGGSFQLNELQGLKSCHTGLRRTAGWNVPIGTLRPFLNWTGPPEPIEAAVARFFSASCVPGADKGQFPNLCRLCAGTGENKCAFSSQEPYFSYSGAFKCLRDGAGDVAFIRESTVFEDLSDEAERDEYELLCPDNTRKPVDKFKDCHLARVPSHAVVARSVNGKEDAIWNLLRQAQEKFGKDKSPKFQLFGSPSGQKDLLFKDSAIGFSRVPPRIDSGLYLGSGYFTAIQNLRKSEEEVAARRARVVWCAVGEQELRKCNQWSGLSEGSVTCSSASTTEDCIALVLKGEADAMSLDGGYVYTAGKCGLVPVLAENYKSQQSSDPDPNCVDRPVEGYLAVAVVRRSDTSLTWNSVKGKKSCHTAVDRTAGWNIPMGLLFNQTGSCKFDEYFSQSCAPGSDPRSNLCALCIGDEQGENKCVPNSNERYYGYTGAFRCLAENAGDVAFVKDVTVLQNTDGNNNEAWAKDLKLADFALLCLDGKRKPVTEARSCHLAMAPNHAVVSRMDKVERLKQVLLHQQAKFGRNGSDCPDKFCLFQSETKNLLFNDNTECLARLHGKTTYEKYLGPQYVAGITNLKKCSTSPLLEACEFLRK

CC(C)[C@H](NC(=O)[C@@H]1CCCN1C(=O)[C@@H]1CCCN1C(=O)[C@H](CCCCN)NC(=O)[C@@H]1CCCN1C(=O)[C@H](C)NC(=O)CNC(=O)[C@@H]1CCCN1C(=O)[C@H](CCCCN)NC(=O)[C@@H]1CCCN1C(=O)[C@@H]1CCCN1C(=O)[C@@H](NC(=O)[C@@H]1CCCN1C(=O)[C@@H]1CCCN1C(=O)[C@H](CCCNC(=N)N)NC(=O)[C@@H]1CCCN1C(=O)[C@H](C)NC(=O)CNC(=O)[C@@H]1CCCN1C(=O)[C@H](CCCCN)NC(=O)[C@H](C)NC(=O)[C@H](C)NC(=O)[C@H](CO)NC(=O)[C@@H](N)[C@@H](C)O)C(C)C)C(=O)N[C@@H](CCC(N)=O)C(=O)N1CCC[C@H]1C(=O)N1CCC[C@H]1C(=O)N[C@@H](CCCCN)C(=O)N[C@@H](CCCCN)C(=O)N1CCC[C@H]1C(=O)N[C@@H](C)C(=O)O [P1-30] (H-TSAAKPGAPRPPVPPKPGAPKPPVQPPKKPA-OH)
Kd (plasminogen): 554 ± 2.1 nM

PGAPKPPVQPPKKPA [P1-15, C-terminal 15 amino acids of P1, synthesised chemically, N-terminal biotin tag]
binding to plasminogen (Glu-plasminogen): only bound plasminogen in a dose dependent manner; also recorded: bound plasminogen in a dose-responsive manner
binding to fibronectin (plasma fibronectin): failed to bind laminin, lactoferrin, fibronectin
binding to fibrinogen (plasma fibrinogen): failed to bind laminin, lactoferrin, fibronectin, and fibrinogen
binding to vitronectin (vitronectin): also bound to vitronectin
binding to laminin (laminin): failed to bind laminin
binding to lactoferrin (lactoferrin): failed to bind laminin, lactoferrin
selective recovery / binding, cytokeratin 7 (cytokeratin 7): selectively recovered
selective recovery / binding, cytokeratin 7 (cytokeratin 7; [3]): selectively bound
selective recovery / binding, cytokeratin 8 (cytokeratin 8): selectively recovered
selective recovery / binding, cytokeratin 8 (cytokeratin 8; [3]): selectively bound
selective recovery / binding, cytokeratin 18 (cytokeratin 18): selectively recovered
selective recovery / binding, cytokeratin 18 (cytokeratin 18; [3]): selectively bound
selective recovery / binding, vimentin (vimentin): selectively recovered
selective recovery / binding, vimentin (vimentin; [3]): selectively bound
recovery of glyceraldehyde-3-phosphate dehydrogenase [1]: also identified in the eluents from the control
binding to panel of host molecules (panel of host proteins): bind a range of host molecules in a dose dependent manner

PKPPRAAPPKAPTPVPPGPASPVKKPKQAPG [scrambled version of P1-30, scrambled version of the C-terminal P1 peptide ([…])]
binding affinity in words, plasminogen (plasminogen; microscale thermophoresis): No binding affinity could be detected
KD, plasminogen (plasminogen; microscale thermophoresis, fluorescent labelled host protein, 30 s, 40%, 60% and 80% MST Power): could not be assigned a KD value
binding affinity in words, fetuin (fetuin): No binding affinity could be detected
KD, fetuin (fetuin; fluorescent labelled host protein, 30 s, 40%, 60% and 80% MST Power): could not be assigned a KD value

B1: Recombinant protein RP15 (C-terminal region of P1 adhesin) (domain or fragment)
chain: DYVLPLAITVPIVVIVLSVTLGLAIGIPMHKNKQALKAGFALSNQKVDVLTKAVGSVFKEIINRTGISQAPKRLKQTSAAKPGAPRPPVPPKPGAPKPPVQPPKKPA
notes: P1 adhesin (Mpn141) of M. pneumoniae, residues 1521-1627
binding to plasminogen (Glu-plasminogen): bound lactoferrin, vitronectin, plasminogen
binding to plasminogen (Glu-plasminogen; listed as RP-15): bound it more strongly
binding to fibronectin (plasma fibronectin): bound lactoferrin, vitronectin, plasminogen, fibronectin
binding to fibronectin (plasma fibronectin; listed as RP-15): bound fibronectin and fibrinogen more strongly than P1-30
binding to fibrinogen (plasma fibrinogen): bound lactoferrin, vitronectin, plasminogen, fibronectin, and fibrinogen
binding to fibrinogen (plasma fibrinogen; listed as RP-15): bound fibronectin and fibrinogen more strongly than P1-30
binding to vitronectin (vitronectin): bound lactoferrin, vitronectin
binding to laminin (laminin): Only M. pneumoniae cells bound laminin
binding to lactoferrin (lactoferrin): bound lactoferrin
binding to immobilised A549 cells (A549 human lung cells): bound immobilised A549 cells; also recorded: observed to bind immobilised A549 cells
binding to panel of host molecules (panel of host proteins): bind a range of host molecules in a dose dependent manner; also recorded: most consistent and most diverse binding capabilities
binding result (Human vitronectin): binds
binding result (Human lactoferrin): binds

B2: P1-30, synthetic C-terminal peptide of P1 adhesin (peptide)
peptide: TSAAKPGAPRPPVPPKPGAPKPPVQPPKKPA
notes: P1 adhesin (Mpn141) of M. pneumoniae, residues 1597-1627; without any tags; also called C-terminal 30 amino acids; P1 tail; source: synthetic peptide (Chempeptide Limited, China)
Kd [2]: 2400 ± 700 nM

B3: rPdhB: Recombinant pyruvate dehydrogenase subunit B of M. pneumoniae (positive control) (protein, UniProt P75391 1-327, looked up)
Pyruvate dehydrogenase E1 …: MSKTIQANNIEALGNAMDLALERDPNVVLYGQDAGFEGGVFRATKGLQKKYGEERVWDCPIAEAAMAGIGVGAAIGGLKPIVEIQFSGFSFPAMFQIFTHAARIRNRSRGVYTCPIIVRMPMGGGIKALEHHSETLEAIYGQIAGLKTVMPSNPYDTKGLFLAAVESPDPVVFFEPKKLYRAFRQEIPADYYTVPIGQANLISQGNNLTIVSYGPTMFDLINMVYGGELKDKGIELIDLRTISPWDKETVFNSVKKTGRLLVVTEAAKTFTTSGEIIASVTEELFSYLKAAPQRVTGWDIVVPLARGEHYQFNLNARILEAVNQLLK
binding to immobilised A549 cells (A549 human lung cells): bound immobilised A549 cells

B4: P1-15, synthetic C-terminal peptide of P1 adhesin with N-terminal biotin (peptide)
peptide: Biotin-PGAPKPPVQPPKKPA
notes: P1 adhesin (Mpn141) of M. pneumoniae, residues 1613-1627; also called C-terminal 15 amino acids; source: synthetic peptide (Chempeptide Limited, China)
binding result (Human vitronectin): binds

Source: publication PMC7156367, “Cell surface processing of the P1 adhesin of Mycoplasma pneumoniae identifies novel domains that bind host molecules” (Scientific Reports, 2020)
